According to patent US6121264A, “Imidazole-substituted quinoxalinedione derivatives” (Yamanouchi Pharmaceutical Co., Ltd., priority 1996, dated 2000):
Where two headings read alike, the source gives them in different places.

What was measured:
[1] = system: glycine receptor; conditions: in vivo; cited from earlier work
[2] = system: neuronal culture system; conditions: compound alone; cited from earlier work
[3] = biological target: AMPA receptor; conditions: Data reported at the American Society of Neuroscience (1996); read-out: AMPA binding inhibition activity (IC50); cited from earlier work
[4] = system: NMDA receptors; conditions: in vivo; cited from earlier work
[5] = system: AMPA receptor; conditions: in vivo; cited from earlier work
[6] = system: DBA/2 mice; experiment: Audiogenic seizure inhibition action in DBA/2 mice; type: in vivo; conditions: Mus musculus, ip, 0.25 h; DBA/2 male mice, intraperitoneal injection 15 minutes before sound stimulus (12 kHz, 120 dB); read-out: minimum effective dose (MED), inhibition of audiogenic seizure
Procedure: 3) Measurement of audiogenic seizure inhibition action in DBA/2 mice
In a sound proof box, a total of 10 male mice of 21 to 28 days of age were exposed to auditory and stimulation by the sound of 12 kHz and 120 dB was applied for 1 minute or until the mice fell into a fit of convulsions. A compound to be tested (the compound of Example 3 which will be described later) was suspended in 0.5% methyl cellulose solution or dissolved in physiological saline and administered by intraperitoneal injection 15 minutes before the sound stimulus. The drug efficacy was evaluated by the presence or absence of spasm, and the minimum effective dose (MED) was calculated.

[7] = biological target: AMPA receptor; experiment: [3H]-AMPA binding inhibition activity; conditions: about 45 nM [3H]-AMPA, rat cerebral membrane, 45 minutes on ice water
Procedure: 1) Measurement of [^3 H]-AMPA binding inhibition activity:
A 0.5 ml portion in total volume of a reaction solution containing about 45 nM of [^3 H]-AMPA [2-amino-3-(3-hydroxy-5-methyl-4-isoxazole)propionicacid], about […] of rat cerebral membrane samples and each of the test compounds was allowed to undergo 45 minutes of the reaction on ice water. The amount of [^3 H]-AMPA bonded to the AMPA receptor was measured by a filtration method. The portion substituted by 10 μM of quisqualic acid among the total amount of binding was defined as the amount of specific binding. Evaluation of the test compounds was carried out by calculating the ratio of binding inhibition exerted on the specific binding.
As the test compounds, the compound of Example 3, which will be described later, was used as the compound of the present invention, and a compound described as Example 1 in the aforementioned reference 1, represented by the following formula (to be referred to as comparative compound 1 hereinafter), was used as a comparative compound. […]

[8] = system: rat fetal hippocampus neurons; experiment: Kainic acid neurotoxicity inhibition (LDH release) in primary culture of rat fetal hippocampus neurons; type: cell-based; conditions: Neuron, 300 μM kainic acid, 24 hours, read-out: Anti-kainic acid neurotoxicity (IC50)
Text: 2) Measurement of kainic acid neurotoxicity inhibition activity:
The action of the compound of the present invention to inhibit kainic acid neurotoxicity was examined using a primary culture system of rat fetal hippocampus neurons.
Hippocampus was excised from the brain of a rat of 18 to 20 days of age and treated with enzymes papain and DNase I to disperse the cells. The cells were suspended in MEM containing 10% serum and inoculated in 4×10^5 cells/cm^2 portions into wells of a 48 well plate which has been treated in advance with poly-I-lysine, and the medium was exchanged with serum-free medium 24 hours thereafter. The medium exchange was carried out twice a week. The cells cultured for 6 days or more were used in the following test.
(2) Kainic acid neurotoxicity inhibition
The neurotoxicity was expressed as the activity of lactate dehydrogenase released in the culture medium caused by cell death. Cells exposed for 24 hours to serum-free medium containing 300 μM of kainic acid were used as the control, and the action of each of the same test compounds used in the above item 1) to inhibit neuronal death caused by kainic acid was evaluated by allowing each compound to act upon the neurons for 24 hours simultaneously with 300 μM of kainic acid.

**Q.** Which “effect in experimental animal model suffering from cerebral ischemia (in words)” value [1] does the source give for `NC1CCN(O)C1=O` (stereo not drawn) [HA-966] here?
**A.** useful

**Q.** Which “action in neurotoxicity test (in words)” value [2] does the source give for `Cc1onc(O)c1CC(N)C(=O)O` (stereo not drawn) [AMPA, 2-amino-3-(3-hydroxy-5-methyl-4-isoxazolyl)propionic acid] here?
**A.** weak action

**Q.** Which IC50 [3] does the source give for `O=c1[nH]c2cc(C(F)(F)F)c(N3CCOCC3)cc2n(CP(=O)(O)O)c1=O` [Comparative compound 2] here?
**A.** 150 nM

**Q.** For `NC(CCCP(=O)(O)O)C(=O)O` (stereo not drawn) [2-amino-5-phosphonovalerianic acid], which “effect in nervous disorders induced by NMDA and in animal models of epilepsy and cerebral ischemia (in words)” value [4] is on record?
**A.** effective

**Q.** Which “effect in experimental animal model suffering from cerebral ischemia (in words)” value [5] does the source give for `NS(=O)(=O)c1cccc2c1c([N+](=O)[O-])cc1[nH]c(=O)c(=O)[nH]c12` [NBQX] here?
**A.** useful

**Q.** Which “action in neurotoxicity test (in words)” value [2] does the source give for `C=C(C)[C@H]1CN[C@H](C(=O)O)[C@H]1CC(=O)O` [kainic acid] here?
**A.** induces by itself significant neuronal death

**Q.** Which results are given for `O=c1[nH]c2cc([N+](=O)[O-])c(-n3ccnc3)cc2n(CCCCOS(=O)(=O)O)c1=O` [Example 3, 4-[2,3-dioxo-7-(1H-imidazol-1-yl)-6-nitro-1,2,3,4-tetrahydroquinoxalin-1-yl]butanesulfate]?
**A.** minimal effective dose [6]: 3 mg/kg; IC50 [7]: 39 nM; IC50 [8]: 160 nM

**Q.** With `NC(CCCCCP(=O)(O)O)C(=O)O` (stereo not drawn) [2-amino-7-phosphonoheptanoic acid] as the compound, how does the “effect in nervous disorders induced by NMDA and in animal models of epilepsy and cerebral ischemia (in words)” value [4] read?
**A.** effective

**Q.** What does the source list for `O=C(O)Cn1c(=O)c(=O)[nH]c2cc([N+](=O)[O-])c(-n3ccnc3)cc21` [Comparative compound 1]?
**A.** IC50 [7]: 140 nM; IC50 [8]: 800 nM
